# Legend:
# [1] = system: EVI1 forms (MDS1/EVI1, EVI1, EVI1^Del190-515); format: cell-based
# Procedure: Proteins were resolved on an 8%, 12%, or 15% SDS-PAGE gel (as appropriate) and electrophoretically transferred to polyvinyldifluoride (PVDF) membranes. After blocking with 5% (w/v) milk in TBST (Tris-Buffered Saline containing 0.1% Tween-20) for one hour at room temperature, membranes were incubated with primary antibodies (at appropriate dilution) overnight at 4° C., followed by extensive washing and incubation for 1 hour with the appropriate horseradish peroxidase-conjugated secondary antibodies (BioRad, Hercules, Calif.). Blots were washed extensively. A rabbit polyclonal EVI1 antibody was obtained (1:3000 dilution, St. Jude's Children's Hospital, Memphis, Tenn.). SnoN rabbit polyclonal (1:1000 dilution), PML, and p21 SMURF2 rabbit polyclonal (1:500 dilution), MRP1 mouse monoclonal (1:500 dilution) and GAPDH mouse monoclonal (1:250 dilution) antibodies were obtained from Santa Cruz Biotechnology (Santa Cruz, Calif.). TGFβRII rabbit polyclonal (1:1000 dilution) antibody was obtained from Strategic Diagnostics (Newark, Del.). Smad2/3 rabbit polyclonal (1:1000 dilution), Beclin-1 rabbit polyclonal (1:1000 dilution), AKT rabbit polyclonal (1:1000 dilution), TAK1 rabbit polyclonal (1:1000 dilution), PARP rabbit polyclonal (1:1000 dilution), Beclin-1 rabbit polyclonal (1:1000 dilution), caspase-3 rabbit polyclonal (1:1000) which detects the pro-caspase form, and ATG5 rabbit polyclonal (1:1000 dilution), LC3-II rabbit polyclonal (1:1000 dilution) antibodies were obtained from Cell Signaling Technology (Danvers, Mass.). The HSP27 mouse monoclonal (1:1000 dilution) antibody was obtained from Stressgen (Ann Arbor, Mich.). Blots were developed using chemiluminescence substrates (Amersham Piscataway, N.J. or BioRad, Hercules, Calif.). Monoclonal PAI-1 antibody was obtained from BD Pharmingen. PSMAD2, total SMAD2/3, p-ERK, p-AKT, and total AKT antibodies were obtained from Cell Signaling Technology. A monoclonal antibody against Arkadia was obtained from Abnova (Taiwan).
# Densitometric analysis was performed using the HP Scanjet 5590 and the Image J program (Image Processing and Analysis in Java, NIH Image Software). Bands were selected and the intensity values were normalized to those for GAPDH. The values are presented as fold-changes relative to control siRNA treated cells.
# The clinical inhibitors As2O3, geldanamycin (17-AAG) (dissolved in dimethylsulfoxide [DMSO]), and MG132 (dissolved in DMSO) were obtained from Sigma-Aldrich (St. Louis, Mo.), Fisher Scientific (Pittsburgh, Pa.), and Alexis Biochemicals (Farmingdale, N.Y.), respectively. N-acetyl-L-cysteine (NAC; dissolved in media) and Bortezomib (PS-341; dissolved in DMSO) were obtained from Fisher Scientific. 3-Methyladenine (3-MA; dissolved in media) was obtained from MP Biomedicals (Solon, Ohio). Tiron (4,5-Dihydroxy-1,3-benzenedisulfonic acid, dissolved in media) was obtained from Fisher Scientific. zVAD-fmk (dissolved in DMSO) and bafilomycin A (dissolved in DMSO) was obtained from Axxora LLC (San Diego, Calif.). Bovine catalase was obtained from Sigma-Aldrich. HBED and Mn TBAP was obtained from ENZO Life Sciences (Farmingdale, N.Y.). Ovarian cells were plated in 6-well plates at 250,000 cells per well and grown in complete medium. The following day, the cells were treated with 5 μM MG132, As2O3 (between 2-50 μM), 17-AAG (between 2-50 μM), NAC (Fisher Scientific, between 25 μM to 1 mM), Tiron (between 25 μM to 1 mM), 3-MA (0.1 mM to 10 mM), or zVAD-fmk (25 μM to 100 μM). For control cells, DMSO (a final concentration of <0.5%) was added to compare appropriately to drugs dissolved in DMSO. After the appropriate incubation time (6 or 18 hours), cell lysates were collected, protein quantified, and SDS-PAGE/western analysis was performed. In addition, for selected studies, RNA was isolated, quantified, and used for qPCR analysis.
# EVI1 and TGFβRII RNA = assay: qPCR of EVI1 and TGFβRII RNA levels; format: cell-based; conditions: 5 μM As2O3, 18 hours
# Procedure: RNA was isolated using the RNeasy Mini Kit (Qiagen, Valencia, Calif.) from normal, benign, stage I-IV ovarian patient samples and quantitative PCR was performed. A one-step RT-PCR Taqman master mix from Applied Biosystems (Foster City, Calif.) and primers for genes in the 3q26.2 amplicon were obtained using Genebank sequences as well as from Assays on Demand (Hs00180524_m1 (SnoN/SkiL)), with the following primers and probe sets.
# EVI1 Exon III—(detects both EVI1 and MDS1/EVI1):
# Primers/probe sequences for SnoN (Hs00180524_m1), TGFβRII (Hs00234253_m1), and LC3 (Hs00261291_m1) were obtained from Applied Biosystems (Assays by Design).
# mRNA levels were determined using the One-Step-Plus Applied Biosystems Detection System or ABI PRISM 7700 Sequence Detection System using β-actin as a reference. […] 95° C. for 15 s followed by 60° C. for 1 min Using the correlative method, RNA-fold change in expression was calculated as Ct of gene—Ct of β-actin to generate ΔCt from which ΔCt of the normal sample was subtracted. […]
# The clinical inhibitors As2O3, geldanamycin (17-AAG) (dissolved in dimethylsulfoxide [DMSO]), and MG132 (dissolved in DMSO) were obtained from Sigma-Aldrich (St. Louis, Mo.), Fisher Scientific (Pittsburgh, Pa.), and Alexis Biochemicals (Farmingdale, N.Y.), respectively. […] In addition, for selected studies, RNA was isolated, quantified, and used for qPCR analysis.
substance,measurement,setting,value
Arsenic trioxide [As2O3],EVI1 and EVI1^Del190-515 protein expression,[1]; 5 μM As2O3,reduced
same,MDS1/EVI1 protein expression,[1]; 5 μM As2O3,remained unchanged
same,protein levels of EVI1 forms,"[1]; HEY and OVCA429, 18 hours, increasing doses",markedly decreased
same,decrease in EVI1 and TGFβRII RNA levels,EVI1 and TGFβRII RNA,< 20%

# — patent US8211646B1, “Methods of treating ovarian cancer by modulating SnoN” (University of South Florida, priority 2008, dated 2012)
